Tests used:
[1] = test system: China jute (Ab); assay: Test Example 4: crop plant selectivity by upland field soil treatment (cotton), herbicidal effects; type: in vivo; parameters: scale not given here; conditions: evaluated 21st day after application
Procedure, shortened: (§1)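 Upland soil treatment: crop and weed seeds in sand pots under a soil cover, compound applied to soil, greenhouse-grown, rated visually 21 d later.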

[2] = test system: common lambsquarters (Ch); assay: as above; type: in vivo; parameters: scale not given here; conditions: evaluated 21st day after application
Procedure, shortened: as §1

[3] = test system: green foxtail (Se); assay: as above; type: in vivo; parameters: scale not given here; conditions: evaluated 21st day after application
Procedure, shortened: as §1

[4] = test system: pale smartweed (Po); assay: as above; type: in vivo; parameters: scale not given here; conditions: evaluated 21st day after application
Procedure, shortened: as §1

[5] = test system: slender amaranth (Am); assay: as above; type: in vivo; parameters: scale not given here; conditions: evaluated 21st day after application
Procedure, shortened: as §1

[6] = test system: pale smartweed (Po); assay: Test Example 6: crop plant selectivity by upland field soil treatment (soybean), herbicidal effects; type: in vivo; parameters: scale not given here; conditions: 21st day after application
Procedure, shortened: (§2)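 Scoring took place 21 days after treatment using a set grading standard, covering both weed control and soybean injury. Seeds of soybean and weed species went into sand-filled pots under a soil cover before soil treatment and greenhouse culture.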

[7] = test system: slender amaranth (Am); assay: as above; type: in vivo; parameters: scale not given here; conditions: 21st day after application
Procedure, shortened: as §2

[8] = test system: corn (Ze); assay: Test Example 7: crop plant selectivity by upland field soil treatment (corn), phytotoxicity; type: in vivo; parameters: scale not given here; conditions: 21st day after application
Procedure, shortened: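 Scoring of weed kill and corn injury was done on day 21 after the application, using defined standards. Before that, sown seeds in sand-filled pots were covered with soil, treated, and grown in a greenhouse.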

[9] = test system: corn (Ze); assay: Test Example 11: crop plant selectivity by upland field foliage treatment (corn), phytotoxicity
Procedure, shortened: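 Corn and the weed species were sown together in sand-filled pots and grown in a greenhouse for 2 weeks before foliar treatment. Herbicidal effect was scored on day 14 after treatment against a graded standard scale, with corn phytotoxicity scored alongside.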

[10] = upland field foliage treatment, dose 1.6 g ai/10a, 14th day after treatment
[11] = corn, foliage treatment, dose 1.6 g ai/10a, evaluated on 14th day after treatment, index per Table 47

Row | SMILES | Herbicidal effects Ab ([1]; dose 6.3 g ai/10 a) | Herbicidal effects Ch ([2]; dose 6.3 g ai/10 a) | Herbicidal effects Se ([3]; dose 6.3 g ai/10 a) | Herbicidal effects Po ([4]; dose 6.3 g ai/10 a) | Herbicidal effects Am ([5]; dose 6.3 g ai/10 a) | Herbicidal effects Po ([6]; dose 6.3 g ai/10a) | Herbicidal effects Am ([7]; dose 6.3 g ai/10a) | Phytotoxicity Ze ([8]; dose 6.3 g ai/10a) | Phytotoxicity Ze [9, 10] | Herbicidal effects Ab ([1]; dose 1.6 g ai/10 a) | Herbicidal effects Ch ([2]; dose 1.6 g ai/10 a) | Herbicidal effects Se ([3]; dose 1.6 g ai/10 a) | Herbicidal effects Po ([4]; dose 1.6 g ai/10 a) | Herbicidal effects Am ([5]; dose 1.6 g ai/10 a) | Herbicidal effects Po ([6]; dose 1.6 g ai/10a) | Herbicidal effects Am ([7]; dose 1.6 g ai/10a) | Phytotoxicity Ze ([9]; upland field foliage treatment, dose 0.1 g ai/10a, 14th day after treatment) | Phytotoxicity Ze [9, 11] | Phytotoxicity Ze ([8]; dose 1.6 g ai/10a)
1 | C=CC(C)Oc1cc(-c2ccc(C(F)(F)F)n(C)c2=O)c(F)cc1Cl (stereo not shown) [Compound 1-182] | 5 | 5 | 5 | 5 | 5 | 5 | 5 | 1 | 1 |  |  |  |  |  |  |  |  |  | 
2 | C#CCN1C(=O)COc2cc(F)c(-c3ccc(C(F)(F)F)n(C)c3=O)cc21 [Compound No. 2-1, 3-[7-fluoro-2,3-dihydro-4-(2-propynyl)-1,4-benzoxazin-3-on-6-yl]-1-methyl-6-trifluoromethyl-2(1H)-pyridone] |  |  |  |  |  | 5 | 5 |  |  | 5 | 5 | 5 | 5 | 5 | 5 | 5 | 0 |  | 
3 | C#CCN1C(=O)COc2cc(F)c(-c3cn(C)c(C(F)(F)F)cc3=O)cc21 [Compound 7-1] | 5 |  | 5 | 5 | 5 | 5 |  |  |  |  |  |  |  |  |  |  |  | 2 | 
4 | CC(C)Sc1cc(-c2ccc(C(F)(F)F)n(C)c2=O)c(F)cc1Cl [1-43] | 4 | 5 | 5 | 5 | 5 | 5 | 5 | 1 |  |  |  |  |  |  |  |  |  |  | 
5 | CON=Cc1cc(-c2ccc(C(F)(F)F)n(C)c2=O)c(F)cc1Cl [Compound No. 1-72, 5-(1-methyl-6-trifluoromethyl-2(1H)-pyridon-3-yl)-2-chloro-4-fluorobenzaldehydeoxime-O-methyl ether] | 5 | 5 | 5 | 5 | 5 | 5 | 5 |  | 2 | 5 | 5 | 5 | 5 | 5 | 5 | 5 |  |  | 0
6 | Cn1cc(-c2cc(Oc3ccccc3)c(Cl)cc2F)c(=O)cc1C(F)(F)F [Compound No. 6-19, 5-(4-chloro-2-fluoro-5-phenoxyphenyl)-1-methyl-2-trifluoromethyl-4(1H)-pyridone] | 5 | 5 | 5 | 5 | 5 | 5 | 5 |  |  | 3 | 5 | 5 | 5 | 5 | 5 | 5 |  |  | 
7 | COCSc1cc(-c2ccc(C(F)(F)F)n(C)c2=O)c(F)cc1Cl [1-91] | 5 | 5 | 5 | 5 | 5 | 5 | 5 | 2 |  | 5 | 5 | 5 | 5 | 5 | 5 | 5 |  |  | 1
8 | C#CC(O)c1cc(-c2ccc(C(F)(F)F)n(C)c2=O)c(F)cc1Cl (stereo not shown) [Compound 1-202] | 5 | 5 | 5 | 5 | 5 |  |  |  |  | 5 | 5 | 5 | 5 | 5 | 5 | 5 |  |  | 1
9 | Cn1c(C(F)(F)F)ccc(-c2cc(Cl)c(Cl)cc2F)c1=O [1-136] | 5 | 5 | 5 | 5 | 5 | 5 | 5 |  |  |  |  |  |  |  | 5 | 5 |  |  | 1
10 | C=CCN1C(=O)COc2cc(F)c(-c3ccc(C(F)(F)F)n(C)c3=O)cc21 [Compound 2-7] | 5 | 5 | 5 | 5 | 5 | 5 | 5 |  |  | 5 | 4 | 4 | 5 | 5 | 5 | 5 |  |  | 
11 | C#CCSc1cc(-c2ccc(C(F)(F)F)n(C)c2=O)c(F)cc1Cl [1-44] | 5 | 5 | 5 | 5 | 5 | 5 | 5 | 1 |  |  |  |  |  |  |  |  |  |  | 
12 | Cc1cc2c(-c3ccc(C(F)(F)F)n(C)c3=O)c(F)cc(Cl)c2o1 [Compound 4-1] | 5 | 5 | 5 | 5 | 5 | 5 | 5 | 1 |  | 5 | 5 | 5 | 5 | 5 | 5 | 5 |  |  | 0
13 | C#CC(C)Oc1cc(-c2cn(C)c(C(F)(F)F)cc2=O)c(F)cc1Cl (racemic) [Compound 6-10] | 5 | 5 | 5 | 5 | 5 |  |  |  |  | 4 | 5 | 4 | 5 | 5 | 5 | 5 |  | 1 | 
14 | CCOCOc1cc(-c2ccc(C(F)(F)F)n(C)c2=O)c(F)cc1Cl [1-181] | 5 | 5 | 5 | 5 | 5 | 5 | 5 |  | 2 |  |  |  |  |  |  |  |  |  | 
15 | CCc1cc2c(-c3ccc(C(F)(F)F)n(C)c3=O)c(F)cc(Cl)c2o1 [Compound 4-2] | 5 | 5 | 5 | 5 | 5 |  |  | 1 |  | 5 | 5 | 5 | 5 | 5 | 5 | 5 |  |  | 1
16 | C#CCn1c(=O)sc2cc(F)c(-c3ccc(C(F)(F)F)n(C)c3=O)cc21 [Compound No. 3-1, 3-[6-fluoro-3-(2-propynyl)-benzothiazolin-2-on-5-yl]-1-methyl-6-trifluoromethyl-2(1H)-pyridone] | 5 | 5 | 5 | 5 | 5 | 5 | 5 | 2 |  | 5 | 5 | 5 | 5 | 5 |  |  |  |  | 2
17 | C#CCOc1cc(-c2ccc(C(F)(F)F)n(N)c2=O)c(F)cc1Cl [1-178] | 5 | 5 | 5 | 5 | 5 |  |  |  | 2 | 5 | 5 | 5 | 5 | 5 |  |  |  |  | 2
18 | COc1cc(-c2ccc(C(F)(F)F)n(N)c2=O)c(F)cc1Cl [1-179] | 5 | 5 | 5 | 5 | 5 |  |  | 1 | 1 |  |  |  |  |  |  |  |  |  | 
19 | Cn1c(C(F)(F)F)ccc(-c2cc(OCC3CC3)c(Cl)cc2F)c1=O [1-160] | 5 | 5 | 5 | 5 | 5 | 5 | 5 | 1 |  |  |  |  |  |  |  |  |  |  | 
20 | Cn1c(C(F)(F)F)ccc(-c2cc(OCC(F)(F)F)c(Cl)cc2F)c1=O [1-155] | 5 | 5 | 5 | 5 | 5 | 5 | 5 | 0 |  | 5 | 5 | 5 | 5 | 5 | 5 | 5 |  |  | 0
21 | COc1cc(-c2ccc(C(F)(F)F)n(C)c2=O)c(F)cc1Cl [1-15] | 5 | 5 | 5 | 5 | 5 |  |  |  |  | 5 | 5 | 5 | 5 | 5 | 5 | 5 |  |  | 1
22 | C#CC(C)Oc1cc(-c2ccc(C(F)(F)F)n(C)c2=O)c(F)cc1Cl (stereo not shown) [1-17] | 4 | 5 | 5 | 5 | 5 |  |  | 1 |  | 5 | 5 | 5 | 5 | 5 | 5 | 5 |  |  | 1
